Here are results for 25 compounds from PubChem BioAssay AID256 (DTP/NCI, 2004).

Inconclusive results and toxic doses are left out.

This experiment relates to CD2F1 mice, L1210 leukemia ip, survival T/C. The experiment can be described thus: NCI In Vivo Anticancer Drug Screen. Data for tumor model L1210 Leukemia (intraperitoneal) in CD2F1 (CDF1) mice. The following applies: higher = longer survival. Summed up:
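Each value reflects a quotient of treated over vehicle control outcomes in mice with a transplanted tumor.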

Setting [1] is: endpoint: mean survival time, dose: 25.0 mg/kg/injection, schedule: Q01DX009 (ip), vehicle: Klucel (hydroxypropylcellulose) (HPC).
[2] abbreviates: endpoint: mean survival time, dose: 50.0 mg/kg/injection, schedule: Q01DX009 (ip), vehicle: Klucel (hydroxypropylcellulose) (HPC).
Setting [3] is: endpoint: mean survival time, dose: 100.0 mg/kg/injection, schedule: Q01DX009 (ip), vehicle: saline.
Setting [4] is: endpoint: mean survival time, dose: 25.0 mg/kg/injection, schedule: Q01DX009 (ip), vehicle: saline with Tween-80.
[5] abbreviates: endpoint: mean survival time, dose: 25.0 mg/kg/injection, schedule: Q04DX003 (ip), vehicle: saline with Tween-80.
The mark [6] stands for this setting: endpoint: mean survival time, dose: 50.0 mg/kg/injection, schedule: Q04DX003 (ip), vehicle: saline with Tween-80.
Where [7] appears, read: endpoint: mean survival time, dose: 100.0 mg/kg/injection, schedule: Q04DX003 (ip), vehicle: saline with Tween-80.
Setting [8] is: endpoint: mean survival time, dose: 200.0 mg/kg/injection, schedule: Q04DX003 (ip), vehicle: saline with Tween-80.
The mark [9] stands for this setting: endpoint: mean survival time, dose: 100.0 mg/kg/injection, schedule: Q04DX003 (ip), vehicle: saline.
[10] abbreviates: endpoint: mean survival time, dose: 200.0 mg/kg/injection, schedule: Q04DX003 (ip), vehicle: saline.
Setting [11] is: endpoint: mean survival time, dose: 100.0 mg/kg/injection, schedule: Q01DX001 (ip), vehicle: saline.
[12] abbreviates: endpoint: mean survival time, dose: 200.0 mg/kg/injection, schedule: Q01DX001 (ip), vehicle: saline.
Setting [13] is: endpoint: mean survival time, dose: 400.0 mg/kg/injection, schedule: Q01DX001 (ip), vehicle: saline.
[14] abbreviates: endpoint: mean survival time, dose: 100.0 mg/kg/injection, schedule: Q01DX001 (ip), vehicle: saline with Tween-80.
Setting [15] is: endpoint: mean survival time, dose: 200.0 mg/kg/injection, schedule: Q01DX001 (ip), vehicle: saline with Tween-80.
Setting [16] is: endpoint: mean survival time, dose: 400.0 mg/kg/injection, schedule: Q04DX003 (ip), vehicle: saline with Tween-80.
Setting [17] is: endpoint: mean survival time, dose: 100.0 mg/kg/injection, schedule: Q01DX009 (ip), vehicle: saline with Tween-80.
The mark [18] stands for this setting: endpoint: mean survival time, dose: 200.0 mg/kg/injection, schedule: Q01DX009 (ip), vehicle: saline with Tween-80.
Where [19] appears, read: endpoint: mean survival time, dose: 50.0 mg/kg/injection, schedule: Q01DX009 (ip), vehicle: saline.
Setting [20] is: endpoint: mean survival time, dose: 50.0 mg/kg/injection, schedule: Q01DX009 (ip), vehicle: saline with Tween-80.

As to `CC1OC(n2cnc3c(NC(=O)c4ccccc4)ncnc32)C(O)C2OC12` (centres undefined), the T/C is 106 % of control (endpoint: median survival time, dose: 12.5 mg/kg/injection, schedule: Q01DX005 (ip), vehicle: alkali diluted with water); 102 % of control (endpoint: median survival time, dose: 25.0 mg/kg/injection, schedule: Q01DX005 (ip), vehicle: alkali diluted with water); 108 % of control (endpoint: median survival time, dose: 50.0 mg/kg/injection, schedule: Q01DX005 (ip), vehicle: alkali diluted with water); 100 % of control (endpoint: median survival time, dose: 100.0 mg/kg/injection, schedule: Q01DX005 (ip), vehicle: alkali diluted with water); 101 % of control (endpoint: median survival time, dose: 200.0 mg/kg/injection, schedule: Q01DX005 (ip), vehicle: alkali diluted with water).
Turning to `CC1(C)N=C(N)N=C(N)N1c1ccc(C(C#N)CCCc2ccccc2)cc1` (centres undefined), the T/C is 97 % of control under setting [1]; 101 % of control under setting [2]; 91 % of control (endpoint: mean survival time, dose: 100.0 mg/kg/injection, schedule: Q01DX009 (ip), vehicle: Klucel (hydroxypropylcellulose) (HPC)).
In the case of `O=S(=O)(O)c1ccccc1O`, the T/C under setting [3] was 101 % of control.
Consider `Nc1ccc(OC(=O)c2ccccc2)cc1`, for which the T/C (endpoint: mean survival time, dose: 12.5 mg/kg/injection, schedule: Q01DX001 (ip), vehicle: saline with Tween-80) is 92 % of control; the T/C (endpoint: mean survival time, dose: 12.5 mg/kg/injection, schedule: Q01DX009 (ip), vehicle: saline with Tween-80) is 91 % of control; the T/C (endpoint: mean survival time, dose: 25.0 mg/kg/injection, schedule: Q01DX001 (ip), vehicle: saline with Tween-80) was 90 % of control; the T/C under setting [4] was 86 % of control; the T/C (endpoint: mean survival time, dose: 50.0 mg/kg/injection, schedule: Q01DX001 (ip), vehicle: saline with Tween-80) is 90 % of control.
Consider `[Cl][Pt+2][Cl].[NH-]CCc1ccccc1.[NH-]CCc1ccccc1`, for which the T/C is, setting by setting: (endpoint: mean survival time, dose: 12.5 mg/kg/injection, schedule: Q04DX003 (ip), vehicle: saline with Tween-80) 103 % of control; under setting [5], 106 % of control; under setting [6], 106 % of control; under setting [7], 103 % of control; under setting [8], 117 % of control.
`Cc1sc2ccccc2[n+]1C`: the T/C is 93 % of control (endpoint: mean survival time, dose: 12.5 mg/kg/injection, schedule: Q01DX009 (ip), vehicle: Klucel (hydroxypropylcellulose) (HPC)); 95 % of control under setting [1]; 87 % of control under setting [2].
As to `NC(CCSc1ccccc1)C(=O)O` (centres undefined), the T/C is, setting by setting: under setting [9], 104 % of control; under setting [10], 102 % of control; (endpoint: mean survival time, dose: 400.0 mg/kg/injection, schedule: Q04DX003 (ip), vehicle: saline) 88 % of control.
On to `CN(C)Cc1cc(C(C)(C)C)c(O)c(C(C)(C)C)c1`, for which the T/C is 112 % of control under setting [5], 108 % of control under setting [6] and 100 % of control under setting [7].
`CC(C)(C)C1SCC(CO)CS1` (centres undefined): the T/C by setting is: (endpoint: mean survival time, dose: 100.0 mg/kg/injection, schedule: Q04DX002 (ip), vehicle: saline with Tween-80) 97 % of control; (endpoint: mean survival time, dose: 200.0 mg/kg/injection, schedule: Q04DX002 (ip), vehicle: saline with Tween-80) 102 % of control; (endpoint: mean survival time, dose: 400.0 mg/kg/injection, schedule: Q04DX002 (ip), vehicle: saline with Tween-80) 91 % of control.
For the compound `C=COCCSCC`, the T/C reads like this: (endpoint: mean survival time, dose: 50.0 mg/kg/injection, schedule: Q04DX003 (ip), vehicle: saline) 98 % of control; under setting [11], 98 % of control; under setting [9], 98 % of control; under setting [12], 97 % of control; under setting [10], 104 % of control; under setting [13], 101 % of control.
In the case of `CCOC(=O)C(=CC(C(=O)OCC)C(=O)OCC)C(=O)OCC`, the T/C runs as follows: under setting [14], 93 % of control; under setting [15], 104 % of control; (endpoint: mean survival time, dose: 400.0 mg/kg/injection, schedule: Q01DX001 (ip), vehicle: saline with Tween-80) 96 % of control.
Regarding `O=CC(CO)OC(C=O)n1ccc(=O)[nH]c1=O` (centres undefined), the T/C was 116 % of control (endpoint: median survival time, dose: 50.0 mg/kg/injection, schedule: Q04DX003 (ip), vehicle: saline); 178 % of control (endpoint: median survival time, dose: 200.0 mg/kg/injection, schedule: Q04DX003 (ip), vehicle: saline); 285 % of control (endpoint: median survival time, dose: 400.0 mg/kg/injection, schedule: Q04DX003 (ip), vehicle: saline); 261 % of control (endpoint: median survival time, dose: 800.0 mg/kg/injection, schedule: Q04DX003 (ip), vehicle: saline).
In the case of `O=C(O)/C=C(/CC(=O)O)C(=O)O`, the T/C was 98 % of control under setting [9] and 94 % of control under setting [10].
Regarding `C[n+]1cccc(C(=O)NCCc2c[nH]c3ccccc23)c1`, the T/C was 92 % of control (endpoint: mean survival time, dose: 18.75 mg/kg/injection, schedule: Q01DX009 (ip), vehicle: saline with Tween-80); 93 % of control (endpoint: mean survival time, dose: 37.5 mg/kg/injection, schedule: Q01DX009 (ip), vehicle: saline with Tween-80); 95 % of control (endpoint: mean survival time, dose: 37.5 mg/kg/injection, schedule: Q04DX003 (ip), vehicle: acetone); 97 % of control (endpoint: mean survival time, dose: 75.0 mg/kg/injection, schedule: Q01DX009 (ip), vehicle: saline with Tween-80); 95 % of control (endpoint: mean survival time, dose: 75.0 mg/kg/injection, schedule: Q04DX003 (ip), vehicle: acetone).
Regarding `O=C(COc1ccc(Cl)c(Cl)c1)Nc1ccc(C(=O)CCl)cc1`, the T/C under setting [7] was 100 % of control, the T/C under setting [8] was 97 % of control and the T/C under setting [16] was 114 % of control.
Consider `Cc1ccc(-n2c(O)c(C=N)c(=O)n(-c3ccc(C)cc3)c2=O)cc1`, for which the T/C by setting is: under setting [7], 95 % of control; under setting [8], 95 % of control; under setting [16], 97 % of control.
In the case of `CCOC(=O)C(C)CN(CC(C)C(=O)OCC)C(C)(C)C` (centres undefined), the T/C is 112 % of control under setting [14] and 100 % of control under setting [15].
For the compound `CN1CN(C)C(=O)S(=O)(=O)C1`, the T/C under setting [17] was 105 % of control; the T/C under setting [7] is 92 % of control; the T/C under setting [18] is 103 % of control; the T/C under setting [8] was 93 % of control; the T/C (endpoint: mean survival time, dose: 400.0 mg/kg/injection, schedule: Q01DX009 (ip), vehicle: saline with Tween-80) was 107 % of control; the T/C under setting [16] is 98 % of control.
As to `S=c1[nH]c2cc(Cl)c(Cl)cc2[nH]1`, the T/C was 100 % of control under setting [11], 100 % of control under setting [12] and 102 % of control under setting [13].
With `CC(C)(O)C(=O)O`, the T/C was 96 % of control under setting [19]; 93 % of control under setting [3]; 86 % of control (endpoint: mean survival time, dose: 200.0 mg/kg/injection, schedule: Q01DX009 (ip), vehicle: saline).
`O=S(=O)(OCC(COS(=O)(=O)c1ccccc1)(COS(=O)(=O)c1ccccc1)COS(=O)(=O)c1ccccc1)c1ccccc1`: the T/C reads like this: under setting [20], 96 % of control; under setting [17], 97 % of control; under setting [7], 86 % of control; under setting [18], 95 % of control; under setting [8], 89 % of control.
For the compound `N=C(N)SC1c2ccccc2-c2ccc(N)cc21` (centres undefined), the T/C is, setting by setting: (endpoint: mean survival time, dose: 25.0 mg/kg/injection, schedule: Q01DX009 (ip), vehicle: saline) 107 % of control; under setting [19], 102 % of control; under setting [3], 109 % of control; under setting [7], 103 % of control.
With `O=C(O)c1c(F)c(F)c2c(F)c(F)c(F)c(F)c2c1F`, the T/C under setting [7] is 93 % of control and the T/C under setting [8] is 92 % of control.
Consider `Cc1nc2[nH]c(=O)[nH]c(=O)c2[nH]1`, for which the T/C under setting [4] was 94 % of control, the T/C under setting [20] is 96 % of control and the T/C under setting [17] is 92 % of control.
As for `CCCCCCCCCCCCCCC[N+]1(CC)CCCCC1`, the T/C runs as follows: (endpoint: mean survival time, dose: 0.09 mg/kg/injection, schedule: Q01DX009 (ip), vehicle: saline) 102 % of control; (endpoint: mean survival time, dose: 0.19 mg/kg/injection, schedule: Q01DX009 (ip), vehicle: saline) 102 % of control; (endpoint: mean survival time, dose: 0.39 mg/kg/injection, schedule: Q01DX009 (ip), vehicle: saline) 115 % of control; (endpoint: mean survival time, dose: 0.78 mg/kg/injection, schedule: Q01DX009 (ip), vehicle: saline) 103 % of control.
